Test results as given in US20100324017A1, “ACYLGUANIDINE DERIVATIVE” (priority 2007, published 2010).

What was measured:
human 5-HT5A receptor = target: T1, human 5-HT5A receptor (Homo sapiens, UniProt P47898); assay: Test of human 5-HT5A receptor binding inhibition ([3H]5-CT, HEK293 cell membrane); conditions: [3H]5-CT binding, membrane of HEK293 cell expressing human 5-HT5A receptor
T1 construct: expressed in transfected cells; membrane preparation
Procedure: An ORF of a human 5-HT5A receptor (Genbank AF498985) was cloned from a human hippocampal cDNA library, and then inserted into a pCR2.1 vector (Invitrogen), and Escherichia coli having the plasmid was mass cultured. Next, the human 5-HT5A receptor full-length cDNA sequence was analyzed, recombined into a pCDNA3.1 vector (Invitrogen) as an expression vector, and mass cultured. A human embryonic kidney-induced cell HEK293 cell (ATCC) was seeded, and the resulting expression plasmid (1 μg) above was added thereto together with LIPOFECTAMINE 2000 (Invitrogen; 2 μl), a gene was introduced into the HEK293 cell, and then Geneticin (G418 sulfate 500 μg/ml; Kanto Chemical Co., Inc.) was used as a drug-resistant marker to screen the expressing cell. Thus prepared gene-expressing recombinant cell was cultured in a D-MEM, 10% FCS, 1% Pc./Sm., 500 μg/ml G418 culture medium for 3 days. This experimental operation was conducted in accordance with a gene operation experiment manual of a known method (Sambrook, J. et al, Molecular Cloning-A Laboratory Manual“, Cold Spring Harabor Laboratory, NY, 1989), etc., an instruction appended in a reagent or the like.
(1) Preparation of a Membrane from an HEK293 Cell Forcibly Expressing a Human 5-HT5A Receptor
An HEK293 cell forcibly expressing a human 5-HT5A receptor was cultured in an F500 plate, and scraped for collection using a scraper. After centrifugation, the precipitates were collected and an incubation buffer (50 mM Tris (HCl) PH 7.4, 10 mM Mg504, 0.5 mM EDTA) was added thereto. After homogenization, it was further centrifuged, an incubation buffer was added to the precipitate, and the mixture was well suspended. These operations were repeatedly conducted, the protein concentration was then measured, and the preparation of a membrane was completed.
(2) Experiment on Human 5-HT5A Receptor Binding Inhibition
The compound to be tested (0.3 to 300 nM) and a 100 μM 5-CT solution in DMSO were added to a 96-well plate at 2 μl/well. The number of the wells to be measured under the same condition in one experiment was set at 2, and an average value thereof was used. It was suspended in an incubation buffer, and a HEK293 cell membrane forcibly expressing a human 5-HT5A receptor that had been prepared at 200 μg/ml was added thereto at 100 μl/well. The mixture was incubated at room temperature for 15 minutes, and a [^3H]5-CT solution (2 nM [^3H]5-CT, an incubation buffer) was then added thereto at 100 μl/well.
Separate from this, 100 μl of the solution was dispersed to a liquid scintillation vial, 2 ml of Aquasol II (registered trademark) was added thereto, followed by stirring, and the radioactivity was then measured with a liquid scintillation counter. The solution was incubated at 37° C. for 60 minutes. The reaction liquid was sucked to a 96-well GF/C filter plate that had been preliminarily treated with 0.2% polyethyleneimine, and washed six times with an ice-cooled 50 mM Tris (pH 7.5) buffer. The GF/C filter plate was dried.
MicroscintTMPS (registered trademark) was added thereto at 40 μl/well. The radioactivity remaining on the GF/C filter plate was measured in a top counter.
For the inhibitory activity for the binding of the [^3H]5-CT by the compound to be tested in each experiment, IC50 value was calculated by taking the radioactivity when only DMSO was added as 0% inhibition, and the radioactivity when 1 μM 5-CT was added as 100% inhibition. Apart from this, a Ki value was calculated from the Kd value of the [^3H]5-CT that had been determined by Scatchard analysis.
Ki=IC50 (1+Concentration of the ligands added/Kd (4.95 nM))

[1] = tested on: scopolamine-induced spontaneous alternation behavior disorder; assay: Scopolamine-induced spontaneous alternation behavior disorder in mice (Y-maze); format: in vivo; conditions: mouse, scopolamine 0.5 mg/kg i.p.
Procedure: An Improvement Effect for Scopolamine-Induced or MK-801-Induced Spontaneous Alternation Behavior in Mice
An improvement effect of the compound (I) for cognitive impairment was evaluated by the above-described well-known test method as a model of a short-term learning disorder.
Species: Male ddY mice/number of animals (number of animals per group): 6 to 10 animals per group
A mouse was introduced into the laboratory 1 hour before starting the test. The mouse was placed at one end of an arm in a Y-maze having equal lengths of arms in three directions, and was able freely explored for 8 minutes with the number of the entries into the arms were counted. Furthermore, a spontaneous alternation behavior was defined as consecutive entries into each of the three arms, and an alternation rate was defined as the percentage of the number of time of this behavior relative to the total number of the entries, and calculated by the following equation.
Alternation rate (%)=(number of spontaneous alternation behaviors/total number of entries−2)×100.
The compound to be tested was orally administered 50 minutes before the initiation of the test, and 30 minutes later, 0.5 mg/kg of scopolamine or 0.15 mg/kg of MK-801 (in the normal group, physiological saline) was intraperitoneally administered. Furthermore, for the normal group (the group administered with physiological saline) and the control group (the group administered with 0.5 mg/kg scopolamine or 0.15 mg/kg MK-801), a solvent (vehicle) was orally administered when the compound to be tested was administered. For the normal group, physiological saline was intraperitoneally administered when scopolamine was administered.
The alternation rate (%) is expressed as an average value in each group (mean±SE). In regard to the alternation rate (%), in the case where a significant difference between the normal group and the control group (Student's T test) was found, it was considered that there was an establishment of learning disorder by the administration of scopolamine or MK-801. By carrying out the Dunnett evaluation for the group administered with the compound to be tested relative to the control group, the presence or absence of the learning disorder action of the compound to be tested was determined. In each evaluation, it was considered that there was a tendency at p<0.10, and there was a significant difference at p<0.05.

MAP-induced overactivity = assay: MAP (methane phetamine)-induced overactivity in mice, kinetic momentum by infrared sensor; format: in vivo; conditions: mouse, oral, dose 0.01 mg/kg; MAP 1 mg/kg i.p.; total 60 minutes, P<0.05
Procedure: (§1) Evaluation of Various Drugs Relative to a Drug for Increasing the Kinetic Momentum of Mice (Methane Phetamine, MK-801) (Method for Measuring a Kinetic Momentum by Discharge of an Infrared Ray)
(§2) The effect of improving the positive symptoms and the negative symptoms of schizophrenia by the compound (I) was evaluated by measuring the kinetic momentum that had been […] with administration of the compound in a model causing the symptoms by methane phetamine (which is hereinafter simply referred to as MAP) and MK-801.
(§3) Species: Male ICR mouse/number of animals (number of animals per group): 8 to 12 animals per group
(§4) The animal was left in a laboratory for 1 hour or longer to be acclimated to the environment, and the animal was taken from the feeding cage, orally administered with a compound to be tested, and then returned to the feeding cage. After 30 minutes, it was put into a cage for measurement, and the kinetic momentum of just the compound to be tested was measured. Further, after 30 minutes, the animal was taken out, and intraperitoneally administered with a drug for increasing kinetic momentum (MAP; 1 mg/kg or MK-801; 0.3 mg/kg, all dissolved in physiological saline), and its kinetic momentum was measured for a certain time (60 minutes) using a device for measuring the kinetic momentum by means of an infrared ray sensor (CompACT AMS, Muromachi Kikai Co., Ltd.). Also, the test was carried out under non-fasting.
(§5) The 60 minutes of measurements was classified into three groups: a first half 30 minutes, a second half 30 minutes, and a total 60 minutes. For a normal mouse (a mouse administered with physiological saline) and a mouse administered with the drug for increasing kinetic momentum, a Student's T test was used for evaluation in each interval. For the group administered with the compound to be tested, a solvent (vehicle) group and a Dunnett's T test were carried out and evaluated. For the evaluation, in case where there was a significant (P<0.05) difference for the total 60 minutes, it was considered to be effective.

[2] = tested on: MK-801-induced overactivity; assay: MK-801-induced overactivity in mice, kinetic momentum by infrared sensor; format: in vivo; conditions: mouse, oral, MK-801 0.3 mg/kg i.p.
Procedure: as §1, §2, §3, §4, §5

[3] = dose 0.01 mg/kg, total 60 minutes, P<0.05

T1 sequence (P47898 whole entry): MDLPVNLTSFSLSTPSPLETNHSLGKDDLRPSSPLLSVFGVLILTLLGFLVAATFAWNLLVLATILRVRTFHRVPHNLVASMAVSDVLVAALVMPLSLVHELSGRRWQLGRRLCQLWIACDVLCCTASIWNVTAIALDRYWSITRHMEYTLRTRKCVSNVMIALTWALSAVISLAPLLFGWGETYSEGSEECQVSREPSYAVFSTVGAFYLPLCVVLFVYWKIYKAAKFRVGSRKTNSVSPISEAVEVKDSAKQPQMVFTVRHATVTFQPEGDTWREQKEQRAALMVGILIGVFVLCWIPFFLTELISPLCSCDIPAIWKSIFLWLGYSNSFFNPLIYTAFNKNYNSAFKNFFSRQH

SMILES: CC(C)n1c2cc(C(=O)N=C(N)N)ccc2c2c(Cl)cccc21 [Example 59]
- Ki (human 5-HT5A receptor): ≤ 50 nM
- inhibition of scopolamine-induced spontaneous alternation behavior disorder ([1]; oral, dose 0.03 mg/kg): significantly inhibited

SMILES: NC(N)=NC(=O)c1ccc2c3c(F)cccc3n(C3CCOCC3)c2c1 [Example 86]
- Ki (human 5-HT5A receptor): 0.56 nM
- inhibition of MAP-induced overactivity (MAP-induced overactivity): significantly inhibited
- inhibition of MK-801-induced overactivity [2, 3]: significantly inhibited
- inhibition of scopolamine-induced spontaneous alternation behavior disorder ([1]; oral, dose 0.0001 mg/kg): significantly inhibited

SMILES: NC(N)=NC(=O)c1ccc2c3ccccc3n(Cc3cccs3)c2c1 [Example 135]
- Ki (human 5-HT5A receptor): ≤ 50 nM
- inhibition of MAP-induced overactivity (MAP-induced overactivity): significantly inhibited
- inhibition of MK-801-induced overactivity [2, 3]: significantly inhibited
- inhibition of scopolamine-induced spontaneous alternation behavior disorder ([1]; oral, dose 0.003 mg/kg): significantly inhibited

SMILES: CC(=O)n1c2ccccc2c2ccc(C(=O)N=C(N)N)cc21 [Example 26]
- Ki (human 5-HT5A receptor): ≤ 50 nM
- inhibition of scopolamine-induced spontaneous alternation behavior disorder ([1]; oral, dose 0.03 mg/kg): significantly inhibited

SMILES: NC(N)=NC(=O)c1ccc2c3ccccc3n(C3CCC(F)(F)CC3)c2c1 [Example 129]
- Ki (human 5-HT5A receptor): ≤ 50 nM
- inhibition of MK-801-induced overactivity ([2]; dose 0.1 mg/kg): significantly inhibited

SMILES: COc1cc2c(cc1OC)C(=O)C(CC1CCN(Cc3ccccc3)CC1)C2 (stereo not drawn) [donepezil, reference compound]
- inhibition of scopolamine-induced spontaneous alternation behavior disorder ([1]; dose 0.25 mg/kg): significantly inhibited

SMILES: Cc1cc(C(=O)N=C(N)N)cc2c1c1ccccc1n2C1CCOCC1 [Example 106]
- Ki (human 5-HT5A receptor): 0.27 nM
- inhibition of MAP-induced overactivity (MAP-induced overactivity): significantly inhibited
- inhibition of MK-801-induced overactivity ([2]; dose 0.03 mg/kg): significantly inhibited
- inhibition of scopolamine-induced spontaneous alternation behavior disorder ([1]; oral, dose 0.0001 mg/kg): significantly inhibited

SMILES: NC(N)=NC(=O)c1ccc2c3ccccc3n(C3CCCCC3)c2c1 [Example 24]
- Ki (human 5-HT5A receptor): ≤ 50 nM
- inhibition of MK-801-induced overactivity ([2]; dose 0.1 mg/kg): significantly inhibited

SMILES: NC(N)=NC(=O)c1ccc2c3ccccc3n(C3CCC3)c2c1 [Example 22]
- Ki (human 5-HT5A receptor): ≤ 50 nM
- inhibition of MK-801-induced overactivity ([2]; dose 0.1 mg/kg): significantly inhibited

SMILES: Cl.Cl.NC(N)=NC(=O)c1ccc2c3ccccc3n(C3CCNCC3)c2c1 [Example 6, N-(diaminomethylene)-9-piperidin-4-yl-9H-carbazole-2-carboxamide dihydrochloride]
- Ki (human 5-HT5A receptor): ≤ 50 nM
- inhibition of MAP-induced overactivity (MAP-induced overactivity): significantly inhibited
- inhibition of MK-801-induced overactivity [2, 3]: significantly inhibited
- inhibition of scopolamine-induced spontaneous alternation behavior disorder ([1]; oral, dose 0.003 mg/kg): significantly inhibited

SMILES: N/C(=N\C(=O)c1ccc2c3ccccc3n(C3CCOCC3)c2c1)NCC1CC1 [Example 178]
- Ki (human 5-HT5A receptor): ≤ 50 nM
- inhibition of MK-801-induced overactivity [2, 3]: significantly inhibited

SMILES: Cc1cccc2c1c1ccc(C(=O)N=C(N)N)cc1n2C1CC=C(F)CC1 (stereo not drawn) [Example 161]
- Ki (human 5-HT5A receptor): ≤ 50 nM
- inhibition of MK-801-induced overactivity ([2]; dose 0.1 mg/kg): significantly inhibited

SMILES: NC(N)=NC(=O)c1ccc2c3ccccc3n(Cc3ccccc3)c2c1 [Example 37]
- Ki (human 5-HT5A receptor): 8.3 nM
- inhibition of MK-801-induced overactivity [2, 3]: significantly inhibited
